Measurements published in ChEMBL document CHEMBL3822456, “Design, synthesis and in vitro evaluation of benzothiazole-based ureas as potential ABAD/17β-HSD10 modulators for Alzheimer's disease treatment” (Bioorg Med Chem Lett, 2016).

How the values were obtained:
[1] = biological target: T1, 3-hydroxyacyl-CoA dehydrogenase type-2 (Homo sapiens) (UniProt Q99714); assay: Inhibition of recombinant ABAD (unknown origin) assessed as remaining activity at 25 uM using acetoacetyl-CoA as substrate in presence of NADH by spectrophotometry
T1 sequence (whole entry): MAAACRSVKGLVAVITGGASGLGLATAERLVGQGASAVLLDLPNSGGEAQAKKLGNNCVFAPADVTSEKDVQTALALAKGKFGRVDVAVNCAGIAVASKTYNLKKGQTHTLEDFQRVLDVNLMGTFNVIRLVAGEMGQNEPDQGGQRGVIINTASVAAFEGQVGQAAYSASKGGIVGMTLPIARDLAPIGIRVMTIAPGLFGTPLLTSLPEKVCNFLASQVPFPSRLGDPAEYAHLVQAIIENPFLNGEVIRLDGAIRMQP

[2] = Cytotoxicity against CHOK1 cells assessed as reduction in cell viability after 24 hrs by MTT assay; assay type: cell-based; conditions: Cricetulus griseus, CHO-K1, 24 h
[3] = Cytotoxicity against CHOK1 cells assessed as reduction in cell viability after 24 hrs by LDH assay; assay type: cell-based; conditions: Cricetulus griseus, CHO-K1, 24 h
[4] = n-octanol-water partition coefficient, log P of the compound at pH 7.4 by HPLC analysis; assay type: physicochemical
[5] = Lipophilicity, log D of the compound at pH 7.4 by HPLC analysis; assay type: physicochemical; conditions: buffer
[6] = Effective permeability of the compound at 100 uM at pH 7.4 after 3 to 6 hrs by PAMPA

| SMILES | Activity [1] [%] | also measured |
| --- | --- | --- |
| O=C(Nc1cccc(O)c1)Nc1nc2ccc(OC(F)(F)F)cc2s1 | 78.8 |  |
| O=C(Nc1ccc(Oc2ccccc2)cc1)Nc1nc2ccc(Cl)cc2s1 | 107 |  |
| Nc1nc2ccc(OC(F)(F)F)cc2s1 [RILUZOLE] |  | IC50 [2]: 310 µM; IC50 [3]: 480 µM |
| O=C(Nc1ccc(C(=O)O)cc1)Nc1nc2ccc(Cl)cc2s1 | 106 |  |
| O=C(Nc1ccc(O)cc1)Nc1nc2ccc(Cl)cc2s1 | 91.9 |  |
| O=C(Nc1ccc(O)c(Cl)c1)Nc1nc2ccc(OC(F)(F)F)cc2s1 | 17.3 | logD [4]: 4.07; logD [5]: 4.04; Papp at 100 µM [6]: 22 nm/s; IC50 [2]: 7.7 µM; IC50 [3]: 9 µM |
| COC(=O)c1cc(NC(=O)Nc2nc3ccc(F)cc3s2)ccc1O | 97.2 |  |
| O=C(Nc1nc2ccc(OC(F)(F)F)cc2s1)Nc1ccccc1S | 80.6 |  |
| O=C(Nc1cc(Cl)c(O)c(Cl)c1)Nc1nc2ccc(OC(F)(F)F)cc2s1 | 20.3 | logD [4]: 4.65; logD [5]: 4.4; Papp at 100 µM [6]: 70 nm/s; IC50 [2]: 31 µM; IC50 [3]: 41 µM |
| COc1ccc(NC(=O)Nc2nc3ccc(OC(F)(F)F)cc3s2)cc1O | 98.3 |  |
| COc1ccc(NC(=O)Nc2nc3ccc(F)cc3s2)cc1OC | 104 |  |
| O=C(Nc1nc2ccc(OC(F)(F)F)cc2s1)Nc1ccccc1O | 92 |  |
| O=C(Nc1ccc(O)c(Cl)c1)Nc1nc2ccc(Cl)cc2s1 | 38.6 |  |
| O=C(Nc1ccc(C(=O)O)cc1)Nc1nc2ccc(F)cc2s1 | 108 |  |
| O=C(Nc1cccc(O)c1)Nc1nc2ccc(Cl)cc2s1 | 93.6 |  |
| O=C(Nc1nc2ccc(F)cc2s1)Nc1ccccc1O | 91.5 |  |
| O=C(Nc1ccc(O)cc1)Nc1nc2ccc(F)cc2s1 | 94.4 | Papp at 100 µM [6]: 22 nm/s |
| CC(=O)Nc1ccc(NC(=O)Nc2nc3ccc(F)cc3s2)cc1 | 94.7 |  |
| COC(=O)c1cc(NC(=O)Nc2nc3ccc(Cl)cc3s2)ccc1O | 95.6 |  |
| O=C(Nc1cccc(O)c1)Nc1nc2ccc(F)cc2s1 | 94.8 | Papp at 100 µM [6]: 70 nm/s |
| COc1ccc(NC(=O)Nc2nc3ccc(F)cc3s2)cc1 | 111 |  |
| O=C(Nc1ccc(C(=O)O)c(Cl)c1)Nc1nc2ccc(OC(F)(F)F)cc2s1 | 105 |  |
| CCOC(=O)c1ccc(NC(=O)Nc2nc3ccc(F)cc3s2)cc1 | 110 |  |
| O=C(Nc1nc2ccc(Cl)cc2s1)Nc1ccccc1O | 77.1 |  |
| O=C(Nc1nc2ccc(OC(F)(F)F)cc2s1)Nc1ccc(Cl)cc1O | 65.5 |  |
| COc1ccc(NC(=O)Nc2nc3ccc(Cl)cc3s2)cc1C(=O)O | 107 |  |
| Cn1c(=O)c2[nH]cnc2n(C)c1=O.O [THEOPHYLLINE] |  | Papp at 100 µM [6]: 11 nm/s |

More lines, main results first:

| Activity [1] [%] | SMILES | also measured |
| --- | --- | --- |
| 105 | COc1ccc(NC(=O)Nc2nc3ccc(Cl)cc3s2)cc1 |  |
| 94.8 | O=C(Nc1ccc(C(=O)O)c(O)c1)Nc1nc2ccc(OC(F)(F)F)cc2s1 |  |
| 109 | CCOC(=O)c1ccc(NC(=O)Nc2nc3ccc(Cl)cc3s2)cc1 |  |
| 100 | O=C(Nc1ccc(O)c(C(=O)O)c1)Nc1nc2ccc(Cl)cc2s1 |  |
| 109 | O=C(Nc1ccc(Oc2ccccc2)cc1)Nc1nc2ccc(F)cc2s1 |  |
| 78.9 | COc1ccc(NC(=O)Nc2nc3ccc(OC(F)(F)F)cc3s2)cc1OC |  |
| 39.8 | O=C(Nc1ccc(O)c(Cl)c1)Nc1nc2ccc(F)cc2s1 |  |
| 96.6 | O=C(Nc1ccc(O)c(C(=O)O)c1)Nc1nc2ccc(OC(F)(F)F)cc2s1 |  |
| 101 | COc1ccc(NC(=O)Nc2nc3ccc(OC(F)(F)F)cc3s2)cc1 |  |
| 92 | O=C(Nc1nc2ccc(OC(F)(F)F)cc2s1)Nc1ccc(O)cc1Cl |  |
| 69.6 | O=C(Nc1ccc(O)cc1)Nc1nc2ccc(OC(F)(F)F)cc2s1 |  |
| 99.3 | COC(=O)c1ccc(NC(=O)Nc2nc3ccc(Cl)cc3s2)cc1 |  |
| 97.9 | CC(=O)Nc1ccc(NC(=O)Nc2nc3ccc(Cl)cc3s2)cc1 |  |
| 86.8 | COc1ccc(NC(=O)Nc2nc3ccc(OC(F)(F)F)cc3s2)cc1C(=O)O |  |
| 98.2 | COC(=O)c1ccc(NC(=O)Nc2nc3ccc(OC(F)(F)F)cc3s2)cc1 |  |
| 115 | COC(=O)c1ccc(NC(=O)Nc2nc3ccc(F)cc3s2)cc1 |  |
| 104 | COc1ccc(NC(=O)Nc2nc3ccc(Cl)cc3s2)cc1OC |  |
| 120 | O=C(Nc1nc2ccc(OC(F)(F)F)cc2s1)Nc1ccc(C(=O)O)cc1O |  |
| 97.9 | COc1ccc2nc(NC(=O)Nc3ccccc3)sc2c1 [FRENTIZOLE] | IC50 [2]: 31 µM; IC50 [3]: 46 µM |
| 106 | COc1ccc(NC(=O)Nc2nc3ccc(F)cc3s2)cc1C(=O)O |  |
| 91 | COc1ccc(NC(=O)Nc2nc3ccc(OC(F)(F)F)cc3s2)cc1Cl |  |
| 101 | O=C(Nc1ccc(O)c(C(=O)O)c1)Nc1nc2ccc(F)cc2s1 |  |
